The text below walks through data of patent publication US20170283859A1, “MICROFLUIDIC qRT-PCR ANALYSIS OF SINGLE CELLS” (The Trustees Of Columbia University In the City of New York, priority 2014, published 2017).

Assay type in all cases: cell-based
For test [1], the system named is GAPDH transcript level in single MCF-7 cells. Kind of test: Microfluidic array single-cell RT-qPCR, housekeeping gene GAPDH. As to conditions: 120 μg/mL MMS for 2.5 h. Here is the method: During the operation of the array chip, a single analysis unit is selected through the multiplexed valves and then 4x10^6 magnetic beads are introduced (100 nL/s for 20 s) until all analysis units have beads with a syringe pump while an external magnet is held under the chambers. The amount of beads is determined according to the manufacturer's reported bead density and verified by pipetting beads onto a glass slide and counting the total amount of beads with ImageJ software. […] The resulting cDNA template for PCR is amplified (qPCR: 10 min at 95° C., followed by 40 cycles of 15 s at 95° C. and 1 min at 60° C.) while the accumulation of products is imaged on a fluorescence microscope using a hydrolysis probe/primer set (TaqMan®). […] Initially, the fluorescence of FAM is suppressed by NFQ. […] Fluorescent intensities of ROX and FAM are acquired and measured at the end of each PCR cycle (FIG. 29). […] The transcript levels of CDKN1 A and the housekeeping gene GAPDH was measured in MMS treated (120 μg/mL for 2.5 h) and untreated single MCF-7 cells using the microfluidic array. […]

In test [2] the test system is CDKN1A gene expression in single MCF-7 cells. Kind of test: Fully integrated on-chip single-cell RT-qPCR (single analysis unit device), induction of CDKN1A. Here is the method: In this example, all steps of single-cell RT-qPCR were integrated in the device from Example 1. […] MCF-7 cells were incubated with MEM media supplemented with 10% FBS and […], and were kept at 37° C. in a humidified incubator containing 5% CO2. The Cells used herein, whether treated or not, were from the same generation of MCF-7 cells to eliminate potential generational gene expression differences. The MCF-7 cell suspension was first diluted to 10^5 cells per mL in a microcentrifuge tube, and mixed to homogenize the suspension and break up cell clusters. The homogenized cell suspension was then driven into the device through the cell inlet via a syringe pump while valves were used to manipulate the direction of the flow. The trapping structure was observed under a microscope. As all cells were directed through the cell trapping unit and the width of the channel at the protruding structure (i.e., the portion of the mold that narrows the channel) within the trapping unit (5 μm) is smaller than the average diameter of MCF-7 cells (18±2 μm), a single cell was immobilized in the trap. Once a single cell was trapped, the upstream control valve (FIG. 5) was activated while the cell washing outlet was opened to direct (the potentially cell-containing) carrier fluid away from the cell trap. On average, 1.5 cells were introduced into the device per second. Single cells were consistently trapped in the microchip in 150 seconds or less. A lysis solution (100 mM TrisHCl, pH 7.5, 500 mM LiCl, 10 mM EDTA, 1% LiDS, 5 mM dithiothreitol) was used to chemically lyse the trapped cells. By mixing oligo(dT)25 functionalized beads with the cell lysate, mRNA templates from a single cell were captured and purified on the surface of the beads. The beads were then moved back to the reaction chamber and retained by an external magnet. With the cell trapping and washing outlets closed and the upstream and downstream valves open (FIG. 5), RT reagents were pipetted into the device chamber, followed by the closure of all the inlets and outlets. Then a pulsed temperature RT protocol was carried out (10 min at 25° C. and 50 min at 42° C.). Similarly, after RT, PCR reagents were introduced into the device which simultaneously flushed away the RT reagent, while the chip was situated on a magnet to immobilize the beads. Once the PCR reagents completely filled the reaction chamber, all the outlets were sealed with plugs. Then the platform was placed on the stage of a fluorescent microscope. Each PCR process was initialized and thermocycled with the following protocols: 10 min at 95° C., followed by 35 cycles of 15 s at 95° C. and 1 min at 60° C. The gene expressions of single cells were assayed for the induction of CDKN1A using a hydrolysis probe/primer. […] The threshold was calculated to be 0.07. […]
(Quantitative PCR measures a nucleic acid by following its amplification.)

In test [3] the test system is CDKN1A transcript levels in single MCF-7 cells. Kind of test: Microfluidic array single-cell RT-qPCR, drug induced CDKN1A expression. Here is the method: During the operation of the array chip, a single analysis unit is selected through the multiplexed valves and then 4x10^6 magnetic beads are introduced (100 nL/s for 20 s) until all analysis units have beads with a syringe pump while an external magnet is held under the chambers. The amount of beads is determined according to the manufacturer's reported bead density and verified by pipetting beads onto a glass slide and counting the total amount of beads with ImageJ software. Next a single analysis unit is reselected with the multiplexed valves and 1.25 μL of cell-containing carrier buffer are introduced (concentration: 10^5 cells/mL, flow rate: 15 nL/s, and infusion time: 83.3 seconds) into the microfluidic device and travel through the cell trap with the first cell to reach the trapping structure becoming trapped. The width of the constriction (5 μm) is smaller than the diameter of the cells (18±2 μm) and therefore the single cell can be immobilized in the trap.
Once a single cell becomes immobilized, the back control valve is opened to allow carrier fluid, potentially containing additional cells, to bypass the trapping region and flow directly to the outlet. To further ensure that no cells remain in the outlet well, buffer is injected into the inlet well with a syringe with a 25 gauge stainless steel needle. Lysis buffer is introduced into the cell trap region of each analysis unit at a flow rate of 2 μl/min over a 5-min period to lyse the trapped cell (Sun et al. 2015). After cell lysis the beads were mixed with the cell lysate by manually moving the magnet and captured the mRNA in the cell content, based on complimentary base pairing between the polyA tails of the mRNA and the oligo(dT)25 residues covalently coupled to the bead surfaces. […] The beads were moved into the active chamber and mixed with the sample (mRNA in cell lysate or XenoRNA) by magnet-driven motion. This process is then repeated for the remaining units of the array chip until five of the RT-qPCR chambers each contain beads with bound mRNA. The sixth chamber provides no-template control.
Reverse transcription is performed in all of the six chambers to convert the mRNA into cDNA, using the bead-bound oligo(dT)25 as a primer and with the chamber temperatures controlled simultaneously in closed loop by the integrated heater and temperature sensor (RT: 10 min at 25° C. and 50 min at 42° C.). The resulting cDNA template for PCR is amplified (qPCR: 10 min at 95° C., followed by 40 cycles of 15 s at 95° C. and 1 min at 60° C.) while the accumulation of products is imaged on a fluorescence microscope using a hydrolysis probe/primer set (TaqMan®). The reagent probe/primer consists of a fluorescein amidite (FAM) reporter dye, a minor groove binder and a nonfluorescent quencher (NFQ). Initially, the fluorescence of FAM is suppressed by NFQ. During the PCR annealing process, the probe binds to a complementary region of the target template. Then, during the elongation process that follows, […] from the probe, causing the fluorescent intensity of FAM to increase. To correct for fluorescent fluctuations due to batch-to-batch changes in cavity volume and PCR component concentrations, a passive reference dye (ROX) is employed to normalize the FAM signal during real-time measurements. Fluorescent intensities of ROX and FAM are acquired and measured at the end of each PCR cycle (FIG. 29).
In this example, stress induced gene expression in single cells was investigated by treating cells with MMS, an alkylating agent, and then analyzing them by on-chip RT-qPCR. […]
In each test, five MMS treated or untreated single cells were isolated and immobilized in five separate analysis units of the array, and the remaining unit was used as a no-template control. Similar to the above mentioned protocol, after cell trapping and lysis, the two-step RT-qPCR was initialized. […]

On to `COS(C)(=O)=O` [MMS, methyl methanesulfonate], for which the “ΔCq (difference between Cq of treated and untreated cells), GAPDH” value in test [1] is “approximately 0.5”. Moreover, the “amount of starting templates higher than in untreated single cells” value in test [2] (2.5 h MMS treated MCF-7 cells) is reported as “about 45 folds”. Also, the “Cq value of CDKN1A RT-qPCR” value in test [2] (MMS treated single MCF-7 cells, 2.5 h, mean of five repeated tests, untreated 32.3) was determined as 26.8. For the same compound, in test [2] (MMS treated vs untreated single MCF-7 cells), the “mean Cq value lower than untreated single cells” value is given as 5.48 cycles. For the same compound, in test [2] (single MCF-7 cells), the “transcript levels of the CDKN1A gene after MMS treatment” value is “upregulated significantly”. In addition, in test [3] (120 μg/mL MMS for 2.5 h), the “ΔCq (difference between Cq of treated and untreated cells), CDKN1A” value is given as 3.0. The “mean Cq value of CDKN1A” value in test [3] (120 μg/mL MMS for 2.5 h, untreated 33.5) was 30.5; in test [3] (dosage 30 μg/ml, 2.5 h), 33.5; in test [3] (dosage 150 μg/ml, 2.5 h), 29.3; in test [3] (exposure time 0.5 h), 32.9; in test [3] (exposure time 4.5 h), 28.1. In test [3] (120 μg/mL for 2.5 h), the “transcript levels of CDKN1A on treating single cells with MMS” value is “upregulated significantly”. Moreover, the “upregulation of CDKN1A expression vs MMS dosage” value in test [3] (30 to 150 μg/mL, 2.5 h) is reported as “positively correlated with MMS dosage”. Besides, the “inter-unit Cq difference for CDKN1A” value turned out to be 0.4 in test [3] (first dose step (doses from 30 to 150 μg/ml, 2.5 h)); 0.7 in test [3] (fourth dose step (doses from 30 to 150 μg/ml, 2.5 h)); 0.7 in test [3] (second dose step (doses from 30 to 150 μg/ml, 2.5 h)); 1.3 in test [3] (third dose step, 90 to 120 μg/ml, 2.5 h). The “upregulation of CDKN1A expression vs treating time duration” value in test [3] (range of 0.5 to 4.5 h) was “positively correlated with treating time duration”.
